Results taken from ChEMBL document CHEMBL3751693, “Synthesis, antimicrobial evaluation and molecular modeling of 5-hydroxyisoquinolinium salt series; the effect of the hydroxyl moiety” (Bioorg Med Chem, 2016).

test system: Staphylococcus aureus; experiment: Antimicrobial activity against clinical isolate Staphylococcus aureus CCM 451608 after 24 hrs; format: functional; details: CCM 451608, 24 h

SMILES	MIC
CCCCCCCCCCCCCC[N+](C)(C)Cc1ccccc1	1 µM
CCCCCCCCCCCC[N+](C)(C)Cc1ccccc1	0.5 µM
CCCCCCCCCCCCCCCC[N+](C)(C)Cc1ccccc1	1 µM

test system: Staphylococcus aureus; experiment: Antimicrobial activity against clinical isolate Staphylococcus aureus CCM 451608 after 48 hrs; format: functional; details: CCM 451608, 48 h

SMILES	MBC	MIC
CCCCCCCCCCCCCC[N+](C)(C)Cc1ccccc1	3.9 µM	1 µM
CCCCCCCCCCCC[N+](C)(C)Cc1ccccc1	2 µM	2 µM
CCCCCCCCCCCCCCCC[N+](C)(C)Cc1ccccc1	3.9 µM	1 µM

test system: Staphylococcus aureus; experiment: Antimicrobial activity against clinical isolate methicillin-resistant Staphylococcus aureus H 599608 after 24 hrs; format: functional; details: H 599608, 24 h

SMILES	MIC
CCCCCCCCCCCCCC[N+](C)(C)Cc1ccccc1	2 µM
CCCCCCCCCCCC[N+](C)(C)Cc1ccccc1	0.5 µM
CCCCCCCCCCCCCCCC[N+](C)(C)Cc1ccccc1	2 µM

test system: Staphylococcus aureus; experiment: Antimicrobial activity against clinical isolate methicillin-resistant Staphylococcus aureus H 599608 after 48 hrs; format: functional; details: H 599608, 48 h

SMILES	MBC	MIC
CCCCCCCCCCCCCC[N+](C)(C)Cc1ccccc1	3.9 µM	2 µM
CCCCCCCCCCCC[N+](C)(C)Cc1ccccc1	1 µM	0.5 µM
CCCCCCCCCCCCCCCC[N+](C)(C)Cc1ccccc1	3.9 µM	2 µM

test system: Staphylococcus epidermidis; experiment: Antimicrobial activity against clinical isolate Staphylococcus epidermidis H 696608 after 24 hrs; format: functional; details: H 696608, 24 h

SMILES	MIC
CCCCCCCCCCCCCC[N+](C)(C)Cc1ccccc1	1 µM
CCCCCCCCCCCC[N+](C)(C)Cc1ccccc1	0.5 µM
CCCCCCCCCCCCCCCC[N+](C)(C)Cc1ccccc1	0.5 µM

test system: Staphylococcus epidermidis; experiment: Antimicrobial activity against clinical isolate Staphylococcus epidermidis H 696608 after 48 hrs; format: functional; details: H 696608, 48 h

SMILES	MBC	MIC
CCCCCCCCCCCCCC[N+](C)(C)Cc1ccccc1	1 µM	1 µM
CCCCCCCCCCCC[N+](C)(C)Cc1ccccc1	0.5 µM	0.5 µM
CCCCCCCCCCCCCCCC[N+](C)(C)Cc1ccccc1	3.9 µM	0.5 µM

test system: Enterococcus sp.; experiment: Antimicrobial activity against clinical isolate Enterococcus sp. J 1436508 after 24 hrs; format: functional; details: J 1436508, 24 h

SMILES	MIC
CCCCCCCCCCCCCC[N+](C)(C)Cc1ccccc1	2 µM
CCCCCCCCCCCC[N+](C)(C)Cc1ccccc1	0.5 µM
CCCCCCCCCCCCCCCC[N+](C)(C)Cc1ccccc1	2 µM

test system: Enterococcus sp.; experiment: Antimicrobial activity against clinical isolate Enterococcus sp. J 1436508 after 48 hrs; format: functional; details: J 1436508, 48 h

SMILES	MBC	MIC
CCCCCCCCCCCCCC[N+](C)(C)Cc1ccccc1	7.8 µM	2 µM
CCCCCCCCCCCC[N+](C)(C)Cc1ccccc1	1 µM	1 µM
CCCCCCCCCCCCCCCC[N+](C)(C)Cc1ccccc1	3.9 µM	2 µM

test system: Escherichia coli; experiment: Antimicrobial activity against clinical isolate Escherichia coli CCM 4517 after 24 hrs; format: functional; details: CCM 4517, 24 h

SMILES	MIC
CCCCCCCCCCCCCC[N+](C)(C)Cc1ccccc1	7.8 µM
CCCCCCCCCCCC[N+](C)(C)Cc1ccccc1	0.5 µM
CCCCCCCCCCCCCCCC[N+](C)(C)Cc1ccccc1	7.8 µM

test system: Escherichia coli; experiment: Antimicrobial activity against clinical isolate Escherichia coli CCM 4517 after 48 hrs; format: functional; details: CCM 4517, 48 h

SMILES	MBC	MIC
CCCCCCCCCCCCCC[N+](C)(C)Cc1ccccc1	7.8 µM	7.8 µM
CCCCCCCCCCCC[N+](C)(C)Cc1ccccc1	2 µM	2 µM
CCCCCCCCCCCCCCCC[N+](C)(C)Cc1ccccc1	7.8 µM	7.8 µM

test system: Klebsiella pneumoniae; experiment: Antimicrobial activity against clinical isolate Klebsiella pneumoniae D 1175008 after 24 hrs; format: functional; details: D 1175008, 24 h

SMILES	MIC
CCCCCCCCCCCCCC[N+](C)(C)Cc1ccccc1	7.8 µM
CCCCCCCCCCCC[N+](C)(C)Cc1ccccc1	0.5 µM
CCCCCCCCCCCCCCCC[N+](C)(C)Cc1ccccc1	7.8 µM

test system: Klebsiella pneumoniae; experiment: Antimicrobial activity against clinical isolate Klebsiella pneumoniae D 1175008 after 48 hrs; format: functional; details: D 1175008, 48 h

SMILES	MBC	MIC
CCCCCCCCCCCCCC[N+](C)(C)Cc1ccccc1	7.8 µM	7.8 µM
CCCCCCCCCCCC[N+](C)(C)Cc1ccccc1	0.5 µM	0.5 µM
CCCCCCCCCCCCCCCC[N+](C)(C)Cc1ccccc1	7.8 µM	7.8 µM

test system: Klebsiella pneumoniae; experiment: Antimicrobial activity against clinical isolate ESBL-Klebsiella pneumoniae J 1436808 after 24 hrs; format: functional; details: J 1436808, 24 h

SMILES	MIC
CCCCCCCCCCCCCC[N+](C)(C)Cc1ccccc1	7.8 µM
CCCCCCCCCCCC[N+](C)(C)Cc1ccccc1	1 µM
CCCCCCCCCCCCCCCC[N+](C)(C)Cc1ccccc1	7.8 µM

test system: Klebsiella pneumoniae; experiment: Antimicrobial activity against clinical isolate ESBL-Klebsiella pneumoniae J 1436808 after 48 hrs; format: functional; details: J 1436808, 48 h

SMILES	MBC	MIC
CCCCCCCCCCCCCC[N+](C)(C)Cc1ccccc1	7.8 µM	7.8 µM
CCCCCCCCCCCC[N+](C)(C)Cc1ccccc1	1 µM	1 µM
CCCCCCCCCCCCCCCC[N+](C)(C)Cc1ccccc1	7.8 µM	7.8 µM

test system: Pseudomonas aeruginosa; experiment: Antimicrobial activity against clinical isolate Pseudomonas aeruginosa CCM 1961 after 72 hrs; format: functional; details: CCM 1961, 72 h

SMILES	MIC
CCCCCCCCCCCCCC[N+](C)(C)Cc1ccccc1	16 µM
CCCCCCCCCCCC[N+](C)(C)Cc1ccccc1	3.9 µM
CCCCCCCCCCCCCCCC[N+](C)(C)Cc1ccccc1	16 µM

test system: Pseudomonas aeruginosa; experiment: Antimicrobial activity against clinical isolate Pseudomonas aeruginosa CCM 1961 after 120 hrs; format: functional; details: CCM 1961, 120 h

SMILES	MBC	MIC
CCCCCCCCCCCCCC[N+](C)(C)Cc1ccccc1	63 µM	16 µM
CCCCCCCCCCCC[N+](C)(C)Cc1ccccc1	7.8 µM	3.9 µM
CCCCCCCCCCCCCCCC[N+](C)(C)Cc1ccccc1	125 µM	16 µM

test system: Candida albicans; experiment: Antimicrobial activity against Candida albicans ATCC 44859 after 24 hrs by spectrophotometry; format: functional; details: ATCC 44859, 24 h

SMILES	MIC
CCCCCCCCCCCCCC[N+](C)(C)Cc1ccccc1	7.8 µM
CCCCCCCCCCCC[N+](C)(C)Cc1ccccc1	0.5 µM
CCCCCCCCCCCCCCCC[N+](C)(C)Cc1ccccc1	3.9 µM

test system: Aspergillus fumigatus; experiment: Antimicrobial activity against Aspergillus fumigatus 231 after 24 hrs by spectrophotometry; format: functional; details: Aspergillus fumigatus, 231, 24 h

SMILES	MIC
CCCCCCCCCCCCCC[N+](C)(C)Cc1ccccc1	7.8 µM
CCCCCCCCCCCC[N+](C)(C)Cc1ccccc1	1 µM
CCCCCCCCCCCCCCCC[N+](C)(C)Cc1ccccc1	7.8 µM

test system: Candida albicans; experiment: Antimicrobial activity against Candida albicans ATCC 44859 after 48 hrs by spectrophotometry; format: functional; details: ATCC 44859, 48 h

SMILES	MFC	MIC
CCCCCCCCCCCCCC[N+](C)(C)Cc1ccccc1	125 µM	7.8 µM
CCCCCCCCCCCC[N+](C)(C)Cc1ccccc1	1 µM	0.5 µM
CCCCCCCCCCCCCCCC[N+](C)(C)Cc1ccccc1	7.8 µM	7.83 µM

test system: Candida tropicalis; experiment: Antimicrobial activity against Candida tropicalis 156 after 24 hrs by spectrophotometry; format: functional; details: Candida tropicalis, 156, 24 h

SMILES	MIC
CCCCCCCCCCCCCC[N+](C)(C)Cc1ccccc1	3.9 µM
CCCCCCCCCCCC[N+](C)(C)Cc1ccccc1	0.5 µM
CCCCCCCCCCCCCCCC[N+](C)(C)Cc1ccccc1	3.9 µM

test system: Candida tropicalis; experiment: Antimicrobial activity against Candida tropicalis 156 after 48 hrs by spectrophotometry; format: functional; details: Candida tropicalis, 156, 48 h

SMILES	MFC	MIC
CCCCCCCCCCCCCC[N+](C)(C)Cc1ccccc1	125 µM	3.9 µM
CCCCCCCCCCCC[N+](C)(C)Cc1ccccc1	1 µM	0.5 µM
CCCCCCCCCCCCCCCC[N+](C)(C)Cc1ccccc1	7.8 µM	7.8 µM

test system: Pichia kudriavzevii; experiment: Antimicrobial activity against Candida krusei E28 after 24 hrs by spectrophotometry; format: functional; details: E28, 24 h

SMILES	MIC
CCCCCCCCCCCCCC[N+](C)(C)Cc1ccccc1	3.9 µM
CCCCCCCCCCCC[N+](C)(C)Cc1ccccc1	0.5 µM
CCCCCCCCCCCCCCCC[N+](C)(C)Cc1ccccc1	2 µM

test system: Pichia kudriavzevii; experiment: Antimicrobial activity against Candida krusei E28 after 48 hrs by spectrophotometry; format: functional; details: E28, 48 h

SMILES	MFC	MIC
CCCCCCCCCCCCCC[N+](C)(C)Cc1ccccc1	125 µM	3.9 µM
CCCCCCCCCCCC[N+](C)(C)Cc1ccccc1	0.5 µM	0.5 µM
CCCCCCCCCCCCCCCC[N+](C)(C)Cc1ccccc1	2 µM	2 µM

test system: Nakaseomyces glabratus; experiment: Antimicrobial activity against Candida glabrata 20/I after 24 hrs by spectrophotometry; format: functional; details: not given

SMILES	MIC
CCCCCCCCCCCCCC[N+](C)(C)Cc1ccccc1	7.8 µM
CCCCCCCCCCCC[N+](C)(C)Cc1ccccc1	0.5 µM
CCCCCCCCCCCCCCCC[N+](C)(C)Cc1ccccc1	2 µM

test system: Nakaseomyces glabratus; experiment: Antimicrobial activity against Candida glabrata 20/I after 48 hrs by spectrophotometry; format: functional; details: not given

SMILES	MFC	MIC
CCCCCCCCCCCCCC[N+](C)(C)Cc1ccccc1	125 µM	7.8 µM
CCCCCCCCCCCC[N+](C)(C)Cc1ccccc1	0.5 µM	0.5 µM
CCCCCCCCCCCCCCCC[N+](C)(C)Cc1ccccc1	63 µM	3.9 µM

test system: Trichosporon asahii; experiment: Antimicrobial activity against Trichosporon asahii 1188 after 24 hrs by spectrophotometry; format: functional; details: Trichosporon asahii, 1188, 24 h

SMILES	MIC
CCCCCCCCCCCCCC[N+](C)(C)Cc1ccccc1	31 µM
CCCCCCCCCCCC[N+](C)(C)Cc1ccccc1	0.5 µM
CCCCCCCCCCCCCCCC[N+](C)(C)Cc1ccccc1	7.8 µM

test system: Trichosporon asahii; experiment: Antimicrobial activity against Trichosporon asahii 1188 after 48 hrs by spectrophotometry; format: functional; details: Trichosporon asahii, 1188, 48 h

SMILES	MFC	MIC
CCCCCCCCCCCCCC[N+](C)(C)Cc1ccccc1	125 µM	31 µM
CCCCCCCCCCCC[N+](C)(C)Cc1ccccc1	2 µM	2 µM
CCCCCCCCCCCCCCCC[N+](C)(C)Cc1ccccc1	63 µM	7.8 µM

test system: Aspergillus fumigatus; experiment: Antimicrobial activity against Aspergillus fumigatus 231 after 48 hrs by spectrophotometry; format: functional; details: Aspergillus fumigatus, 231, 48 h

SMILES	MFC	MIC
CCCCCCCCCCCCCC[N+](C)(C)Cc1ccccc1	125 µM	16 µM
CCCCCCCCCCCC[N+](C)(C)Cc1ccccc1	3.9 µM	3.9 µM
CCCCCCCCCCCCCCCC[N+](C)(C)Cc1ccccc1	63 µM	7.8 µM

test system: Lichtheimia corymbifera; experiment: Antimicrobial activity against Absidia corymbifera 272 after 24 hrs by spectrophotometry; format: functional; details: Lichtheimia corymbifera, 272, 24 h

SMILES	MIC
CCCCCCCCCCCCCC[N+](C)(C)Cc1ccccc1	31 µM
CCCCCCCCCCCC[N+](C)(C)Cc1ccccc1	7.8 µM
CCCCCCCCCCCCCCCC[N+](C)(C)Cc1ccccc1	7.8 µM

test system: Lichtheimia corymbifera; experiment: Antimicrobial activity against Absidia corymbifera 272 after 48 hrs by spectrophotometry; format: functional; details: Lichtheimia corymbifera, 272, 48 h

SMILES	MFC	MIC
CCCCCCCCCCCCCC[N+](C)(C)Cc1ccccc1	125 µM	31 µM
CCCCCCCCCCCC[N+](C)(C)Cc1ccccc1	7.8 µM	7.8 µM
CCCCCCCCCCCCCCCC[N+](C)(C)Cc1ccccc1	63 µM	7.8 µM

test system: Trichophyton mentagrophytes; experiment: Antimicrobial activity against Trichophyton mentagrophytes 445 after 72 hrs by spectrophotometry; format: functional; details: Trichophyton mentagrophytes, 445, 72 h

SMILES	MIC
CCCCCCCCCCCCCC[N+](C)(C)Cc1ccccc1	16 µM
CCCCCCCCCCCC[N+](C)(C)Cc1ccccc1	1 µM
CCCCCCCCCCCCCCCC[N+](C)(C)Cc1ccccc1	7.8 µM

test system: Trichophyton mentagrophytes; experiment: Antimicrobial activity against Trichophyton mentagrophytes 445 after 120 hrs by spectrophotometry; format: functional; details: Trichophyton mentagrophytes, 445, 120 h

SMILES	MFC	MIC
CCCCCCCCCCCCCC[N+](C)(C)Cc1ccccc1	16 µM	16 µM
CCCCCCCCCCCC[N+](C)(C)Cc1ccccc1	2 µM	1 µM
CCCCCCCCCCCCCCCC[N+](C)(C)Cc1ccccc1	63 µM	7.8 µM

test system: not listed separately; experiment: Cytotoxicity against CHOK1 cells after 24 hrs by MTT assay; format: cell-based; details: Cricetulus griseus, CHO-K1, 24 h

SMILES	IC50
CCCCCCCCCCCCCC[N+](C)(C)Cc1ccccc1	24 µM
CCCCCCCCCCCC[N+](C)(C)Cc1ccccc1	29 µM
CCCCCCCCCCCCCCCC[N+](C)(C)Cc1ccccc1	15 µM
